Data set [1] has as its system MDA-MB-231 cells. Put plainly: ATP assay using BioTracker ATP-Red 1 (mitochondrial ATP levels). Format: cell-based. The settings on record: Homo sapiens, 120 hours of treatment, read-out: Maximal inhibition of mitochondrial ATP production. Here is the method: FIG. 7 compares the fold-change of BioTracker ATP-Red (signal mean) between the control and MDA-MB-231 cells treated with Bedaquiline. […] The data in FIG. 7 based on two-way ANOVA, Sidak's multiple comparisons test, *p<0.05, **p<0.005, ***p<0.0005, ****p<0.0001.
ATP assay using BioTracker ATP-Red 1: Cells were stained with BioTracker ATP-Red 1 after various treatments. After 30 minutes of incubation, the cells were washed twice with DPBS, collected and dissociated into a single-cell suspension with a 40 μm cell strainer. The cells were analyzed using the Attune NxT Flow Cytometer. Means of the signal (at 570 nm) were compared.

Data set [2] deals with MDA-MB-231 cells. Put plainly: Cell cycle analysis by FACS. The class given is cell-based, human. Here is the method: There is a 2-fold reduction of MDA-MB-231 cells in S-phase and a concomitant 2-fold increase in the sub-G0-G1 population, after 120 hours of treatment. Two-way ANOVA, Sidak's multiple comparisons test, ns=not significant, ***p<0.0005. FIGS. 9C and 9D show representative FACS tracings for the control and for cells treated with Bedaquiline, respectively.
FIGS. 10A-10C show cell cycle populations for MDA-MB-231 cells treated with Bedaquiline (1 and 10 μM) or vehicle alone, after 48, 72 and 120 hours, respectively. Cell cycle analysis was performed using FACS. […] However, at 72 and 120 hours, a decrease in the S-phase population and a concomitant increase in the sub-G0-G1 population can be seen in FIGS. 10B and 10C. Two-way ANOVA, Sidak's multiple comparisons test, ns=not significant, *p<0.01, **p<0.001, ***p<0.0005.
Cell Cycle Analysis by FACS: Cell-cycle analysis was performed on the ATP-high and ATP-low cell sub-populations, by FACS analysis using the Attune NxT Flow Cytometer. Briefly, after trypsinization, the re-suspended cells were incubated with propidium iodide, as per the manufacturer's recommendations (Merck Millipore, Inc.). At least 25,000 events were analyzed per condition. Gated cells were categorized into cell-cycle stages.

The next data set has as its system p21. Put plainly: Western blot analysis of p21 protein expression. The following applies: 0.1, 1 and 10 μM, 120 hours. For orientation: In western blotting, separated proteins are transferred to a membrane and probed.
For the next data set, the system named is chicken embryos. Put plainly: CAM assay: embryo toxicity. The class given is in vivo. The settings on record: all concentrations tested, daily for 8 days. The method, then:
(§1) Next, to test in vivo activity, the well-established CAM assay was used with MDA-MB-231 cells, to measure the effect of Bedaquiline effects on tumor growth, spontaneous metastasis and embryo toxicity. FIG. 11A illustrates the timeline for the CAM assay. An inoculum of 1×10^6 MDA-MB-231 cells was added onto the CAM of each egg (day E9) and then eggs were randomized into groups. On day E10, tumors were detectable and they were then treated daily for 8 days with vehicle alone (1% DMSO in PBS) or Bedaquiline. After 8 days of drug administration, on day E18, all tumors were weighed, and the lower CAM was collected to evaluate the number of metastatic cells, as analyzed by qPCR with specific primers for Human Alu sequences. Before each drug administration, treatment tolerability was evaluated by scoring the number of live and dead chicken embryos.
(§2) Tumor Growth, Metastasis and Embryo Toxicity Assays: Xenograft assays were carried out by INOVOTION (Société: 811310127), La Tronche-France. […] For tumor growth assays, at least 14 tumor samples were collected and analysed per group (N≥14). […] Genomic DNA was extracted from the CAM (commercial kit) and analyzed by qPCR with specific primers for Human Alu sequences. […] Before each administration, the treatment tolerability was evaluated by scoring the number of live and dead embryos.

A further data set has as its system MCF10A cells. Description: 2D monolayer growth, non-tumorigenic control cells. The class given is cell-based. The settings on record: 10 μM, normal control human mammary epithelial cell line. Here is the method:
(§3) FIGS. 8A and 8B show monolayer growth of MDA-MB-231 and MCF10A cells, respectively, treated with 10 μM Bedaquiline over time. […] Unpaired t-test *p<0.05, **p<0.005.
(§4) Reagents and Model Cell Lines: It should be apparent that other cell lines may be used without departing from the present approach. BioTracker ATP-Red 1 (#SCT045) was obtained commercially from Merck-Millipore, Inc. The triple-negative human breast cancer cell line, MDA-MB-231, was obtained from the American Type Culture Collection (ATCC). MCF10A cells, a non-tumorigenic human breast epithelial cell line, were also obtained from ATCC. MDA-MB-231 cells were cultured in DMEM (High Glucose) supplemented with 10% Fetal Bovine Serum (FBS, Sigma Aldrich), 2 mM Glutamax (Gibco, Life Technologies, Waltham, MA, USA), and 1% penicillin/streptomycin (Gibco, Life Technologies). The MCF10A cell line was maintained in a mammary epithelial cell growth medium (MEGM; Lonza, Basel, Switzerland) supplemented with 0.4% Bovine pituitary extract (BPE), 0.1% insulin, 0.1% hEGF, 0.1% Hydrocortisone, 0.1% GA-1000, and 100 ng/ml of cholera toxin. All cell lines were cultured at 37° C. in 5% CO2 in a humidified atmosphere.

Data set [3] relates to MDA-MB-231 cells. Put plainly: 3D anchorage-independent growth (mammosphere formation) assay. The class given is cell-based, human. The settings on record: for Mammosphere formation inhibition compared to Bedaquiline (FIG. 12): 0.5 μM to 10 μM, all concentrations tested; for Mammosphere formation inhibition at the higher concentrations (FIG. 12): higher concentrations of 0.5 μM to 10 μM range. The method, then: One-way ANOVA, Dunnett's multiple comparisons test, **p<0.005, ***p<0.0005.
3D Anchorage Independent Growth Assay: This assay is also referred to as the mammosphere formation assay. A single-cell suspension was prepared using enzymatic, and manual disaggregation (25-g needle). Then, cells were plated at a density of 500 cells/cm^2 in mammosphere medium (DMEM-F12+1× B-27 Plus Supplement+20 ng/ml EGF+Pen/Strep) under non-adherent conditions, in culture dishes pre-coated with (2-hydroxyethylmethacrylate) (poly-HEMA, Sigma Aldrich Inc.), called “mammosphere plates.” Cells were grown for 5 days and maintained in a humidified incubator at 37° C. After 5 days of culture, 3D-mammospheres >50 μm were counted using an eye piece (“graticule”), and the percentage of cells plated which formed spheres was calculated and is referred to as percent mammosphere formation, and was normalized to one (1=100% MFE). 3D mammosphere formation efficiency (MFE) was analyzed in both the ATP-low and ATP-high sub-populations of cells. All 3D mammosphere experiments were performed in triplicate, at least 3 times independently.

Data set [4] deals with MDA-MB-231 cells. Description: 2D monolayer growth. Format: cell-based, human. The settings on record: 10 μM, time-dependent. Here is the method: as §3, §4
The subject of data set [5] is MDA-MB-231 cells. Put plainly: Live cell/dead cell analysis by FACS. The class given is cell-based, human. The settings on record: 1 and 10 μM. Here is the method: FIGS. 10D-10F show the results of live cell/dead cell analysis. MDA-MB-231 cells were treated with Bedaquiline (1 and 10 μM) or vehicle alone, for 48, 72 and 120 hours, and then subjected to live/dead analysis by FACS. […] However, at 72 and 120 hours (FIGS. 10E and 10F), a decrease in the live cell population and an increase in the dead cell population can be seen. […] Two-way ANOVA, Sidak's multiple comparisons test, ns=not significant, *p<0.01, **p<0.001, ***p<0.0005.
A general note: In flow cytometry, cells or beads pass a laser one at a time.

For a further data set, the system named is PARP. Description: Western blot analysis of PARP protein expression. The following applies: 0.1, 1 and 10 μM, 120 hours.
Data set [6] has as its system MDA-MB-231 cells. Put plainly: CAM assay: tumor growth and spontaneous metastasis. Format: in vivo, chicken. The following applies: daily for 8 days. Here is the method:
as §1, §2

The subject of data set [7] is MDA-MB-231 cells. Description: Cell migration assay (Transwells). The class given is cell-based. The following applies: Homo sapiens, 32 hours then 16 hours in Transwells. Here is the method: MDA-MB-231 cells were cultured in presence of Bedaquiline (10 μM) for 32 hours and moved to the Transwells for 16 hours in presence of Bedaquiline (10 μM). Unpaired t-test, **p<0.005.
Cell Migration Assays: Briefly, 3.5×10^4 cells in 0.5 ml of serum-free DMEM with 0.1% BSA were added to the wells of 8-μm pore, non-coated membrane modified Boyden chambers (Transwells). The lower chambers contained 10% fetal bovine serum in DMEM to serve as a chemo-attractant. Cells were incubated at 37° C. and allowed to migrate throughout the course of 16 hours. Noninvasive cells were removed from the upper surface of the membrane by scrubbing with cotton swabs. Chambers were stained in 0.5% crystal violet diluted in 100% methanol for 30-60 min, rinsed in water and examined under a bright-field microscope. Values for invasion and migration were obtained by counting five fields per membrane (20× objective) and represent the average of three independent experiments.

The target of another data set is ATP5F1C (Homo sapiens, UniProt P36542). The settings on record: 0.1, 1 and 10 μM; 24, 48, 72 and 120 hours; relative to vehicle (DMSO).

For orientation: inhibition means the percentage by which the read-out fell short of the control.

Consider `COc1nc2ccc(Br)cc2cc1[C@@H](c1ccccc1)[C@@](O)(CCN(C)C)c1cccc2ccccc12` [Bedaquiline, (1R,2S)-1-(6-bromo-2-methoxyquinolin-3-yl)-4-(dimethylamino)-2-naphthalen-1-yl-1-phenylbutan-2-ol], for which the inhibition at 10 µM with MDA-MB-231 cells [1] is 75%. In the data set on MDA-MB-231 cells [2] (1 and 10 μM, 72 and 120 hours), the S-phase population entry is reported as “decrease” and the sub-G0-G1 population result is reported as “increase”. The Cell cycle populations entry in the data set on MDA-MB-231 cells [2] (1 and 10 μM, 48 hours) was “No effects were detectable”. Moreover, in the data set on MDA-MB-231 cells [2] (after 120 hours of treatment), the “Increase in the sub-G0-G1 population” value is given as 2 fold and the “Reduction of cells in S-phase” value came to 2 fold. Besides, the p21 protein expression result in the data set on p21 is recorded as “decreased in a concentration-dependent manner”. Also, the “Toxicity for chick embryos (egg survival)” value in the data set on chicken embryos is “not toxic”. Besides, in the data set on MCF10A cells, the 2D monolayer growth result was “No effect was observed”. The same compound came in with an inhibition at 10 µM with MDA-MB-231 cells [3] (Homo sapiens, MDA-MB-231, 10 μM) of around 65%. Further, the 2D monolayer growth result with MDA-MB-231 cells [4] is “effectively inhibits 2D growth”. For the same compound, in the data set on MDA-MB-231 cells [5] (72 and 120 hours), the “Apoptotic cell population (early or late)” value is reported as “no increase”, the Dead cell population result is given as “increase” and the Live cell population entry is “decrease”. The Live/dead cell populations result in the data set with MDA-MB-231 cells [5] (48 hours) is listed as “No effects were detectable”. For the same compound, the PARP protein expression result in the data set on PARP is given as “decreased in a concentration-dependent manner”. The “Inhibition of spontaneous metastasis” value with MDA-MB-231 cells [6] (120 μM treatment, qPCR Human Alu in lower CAM) is on record as 84%. In addition, the “Effect on tumor growth (average tumor weight)” value in the data set on MDA-MB-231 cells [6] (day E18) is reported as “no statistically significant effect”. The compound further yielded an inhibition at 10 µM in the data set with MDA-MB-231 cells [7] of around 50%. Also, at ATP5F1C, the ATP5F1C protein expression entry is “down-regulated”.
For `COc1nc2ccc(CCCCOC(=O)CCCCCCCCCCC[P+](c3ccccc3)(c3ccccc3)c3ccccc3)cc2cc1[C@@H](c1ccccc1)[C@@](O)(CCN(C)C)c1cccc2ccccc12.[Br-]` [structure [2B]], in the data set on MDA-MB-231 cells [3], the “Mammosphere formation inhibition compared to Bedaquiline (FIG. 12)” value was “more potent than unconjugated Bedaquiline” and the “Mammosphere formation inhibition at the higher concentrations (FIG. 12)” value is listed as “exceptional mammosphere formation inhibition”.
For `COc1nc2ccc(CCCCOC(=O)CCCCC[P+](c3ccccc3)(c3ccccc3)c3ccccc3)cc2cc1[C@@H](c1ccccc1)[C@@](O)(CCN(C)C)c1cccc2ccccc12.[Cl-]` [structure [3B], [6-[4-[3-[(1R,2S)-4-(dimethylamino)-2-hydroxy-2-(1-naphthyl)-1-phenyl-butyl]-2-methoxy-6-quinolyl]butoxy]-6-oxo-hexyl]-triphenyl-phosphonium; chloride] the same measures were “more potent than unconjugated Bedaquiline” and “exceptional mammosphere formation inhibition”.
